Source: ChEMBL document CHEMBL4665834 (J Med Chem, 2020)
In brackets after ≈: the same amount, converted by molar mass.

Experiments:
[1] = molecular target: Prostaglandin E2 receptor EP2 subtype (Homo sapiens, UniProt P43116); experiment: Displacement of [3H]prostaglandin E2 from full-length recombinant human EP2 receptor expressed in HEK293 cell membranes measured after 120 mins by scintillation counting method
[2] = Oral bioavailability in Wistar rat at 1 to 3 mg/kg administered via gavage using EtOH/PEG400/H2O 10/40/50 formulation by LC-MS/MS analysis; format: ADME, organism-based; details: in vivo, dose 1-3 mg/kg
[3] = Terminal half life in Balb/c mouse at 1 mg/kg, iv administered as bolus dose by LC-MS/MS analysis; format: ADME, organism-based; details: in vivo, read-out: beta t1/2 (converted)
[4] = molecular target: Prostaglandin E2 receptor EP3 subtype (Homo sapiens, UniProt P43115); experiment: Displacement of [3H]prostaglandin E2 from full-length recombinant human EP3 receptor expressed in HEK293 cell membranes measured after 120 mins by scintillation counting method
Chain of Prostaglandin E2 receptor EP3 subtype (P43115 whole entry): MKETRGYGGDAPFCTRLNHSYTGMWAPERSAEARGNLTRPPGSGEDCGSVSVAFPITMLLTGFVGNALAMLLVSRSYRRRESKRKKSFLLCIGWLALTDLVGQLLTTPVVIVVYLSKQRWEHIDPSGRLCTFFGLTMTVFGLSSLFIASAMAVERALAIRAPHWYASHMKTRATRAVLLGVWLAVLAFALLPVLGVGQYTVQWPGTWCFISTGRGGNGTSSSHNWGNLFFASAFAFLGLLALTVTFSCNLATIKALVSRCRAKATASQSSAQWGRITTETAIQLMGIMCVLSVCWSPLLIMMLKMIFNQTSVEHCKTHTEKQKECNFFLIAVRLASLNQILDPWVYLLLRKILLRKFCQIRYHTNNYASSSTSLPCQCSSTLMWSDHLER

[5] = Protein binding in pooled dog plasma assessed as unbound fraction incubated for 6 hrs by LC-MS/MS analysis based equilibrium dialysis method; format: ADME, cell-free, Canis lupus familiaris
[6] = molecular target: T1, Prostaglandin F2-alpha receptor (Rattus norvegicus, UniProt P43118); experiment: Antagonist activity at FPR in Wistar rat assessed as inhibition of PGF2alpha-induced uterus contraction; format: tissue-based
T1 sequence (P43118 whole entry): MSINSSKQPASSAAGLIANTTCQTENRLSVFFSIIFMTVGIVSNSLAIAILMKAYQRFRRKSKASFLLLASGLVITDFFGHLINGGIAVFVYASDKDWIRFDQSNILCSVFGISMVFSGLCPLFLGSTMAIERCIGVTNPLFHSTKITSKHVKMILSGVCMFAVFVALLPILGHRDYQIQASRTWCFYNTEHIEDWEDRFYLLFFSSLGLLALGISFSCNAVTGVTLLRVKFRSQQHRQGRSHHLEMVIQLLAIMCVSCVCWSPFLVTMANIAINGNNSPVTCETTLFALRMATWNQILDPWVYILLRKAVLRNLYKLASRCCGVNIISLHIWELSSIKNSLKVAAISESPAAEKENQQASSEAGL

[7] = Apparent permeability in human Caco-2 cells measured after 2 hrs by HPLC analysis; format: ADME, cell-based
[8] = Protein binding in pooled human plasma assessed as unbound fraction incubated for 6 hrs by LC-MS/MS analysis based equilibrium dialysis method; format: ADME, cell-free
[9] = Terminal half life in Wistar rat at 1 mg/kg, iv administered as bolus dose by LC-MS/MS analysis; format: ADME, organism-based; details: in vivo, read-out: beta t1/2 (converted)
[10] = Maximum oral bioavailability in dog hepatocytes based well stirred liver model at 1 uM measured after 2 to 90 mins by LC-MS/MS analysis; format: ADME, Canis lupus familiaris, Hepatocyte; details: time 2-90 min, read-out: Fmax
[11] = molecular target: T1, Prostaglandin F2-alpha receptor; experiment: Antagonist activity at rat FPR stably expressed in CHO cells assessed as inhibition of PGF2alpha-induced calcium flux preincubated for 10 mins followed by PGF2alpha stimulation and measured for 120 secs by fluo-8 AM dye based fluorescence assay; format: cell-based
Cytochrome P450 2C8 = Cytochrome P450 2C8 (Homo sapiens, UniProt P10632); experiment: Inhibition of CYP2C8 in human liver microsomes using amodiaquine as substrate incubated for 15 mins in presence of NADPH generating system by LC-MS/MS analysis; format: ADME
Chain of Cytochrome P450 2C8 (P10632 whole entry): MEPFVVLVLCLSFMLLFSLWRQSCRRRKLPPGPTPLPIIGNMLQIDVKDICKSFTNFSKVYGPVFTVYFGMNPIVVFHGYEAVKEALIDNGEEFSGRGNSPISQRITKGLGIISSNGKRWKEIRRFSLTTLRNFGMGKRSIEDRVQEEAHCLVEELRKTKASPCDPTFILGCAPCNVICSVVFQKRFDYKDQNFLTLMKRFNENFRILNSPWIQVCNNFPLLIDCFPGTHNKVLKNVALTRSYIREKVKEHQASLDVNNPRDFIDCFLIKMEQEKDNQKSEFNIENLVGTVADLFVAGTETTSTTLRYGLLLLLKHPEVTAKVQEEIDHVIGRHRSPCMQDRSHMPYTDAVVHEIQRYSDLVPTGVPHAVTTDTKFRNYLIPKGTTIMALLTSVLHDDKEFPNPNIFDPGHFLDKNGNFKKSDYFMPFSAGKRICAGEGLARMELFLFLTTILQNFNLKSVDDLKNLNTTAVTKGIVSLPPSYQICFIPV

[12] = molecular target: T2, Prostaglandin F2-alpha receptor (Mus musculus, UniProt P43117); experiment: Antagonist activity at FPR in mouse NIH3T3 cells assessed as inhibition of PGF2alpha-induced MCP1 production measured after 24 hrs by Bio-Rad assay; format: cell-based
T2 sequence (P43117 whole entry, the tested form may be a part): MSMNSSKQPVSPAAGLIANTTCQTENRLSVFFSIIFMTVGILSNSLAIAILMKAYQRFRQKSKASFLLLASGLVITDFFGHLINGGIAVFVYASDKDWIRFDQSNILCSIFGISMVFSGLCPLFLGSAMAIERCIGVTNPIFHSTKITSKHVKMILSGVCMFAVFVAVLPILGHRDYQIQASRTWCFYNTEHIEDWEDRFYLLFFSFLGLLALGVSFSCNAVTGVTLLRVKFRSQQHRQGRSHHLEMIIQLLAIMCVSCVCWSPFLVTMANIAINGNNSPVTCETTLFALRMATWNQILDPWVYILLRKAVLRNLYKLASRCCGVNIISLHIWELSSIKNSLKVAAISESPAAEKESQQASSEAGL

[13] = Clearance in Beagle dog at 0.5 mg/kg, iv administered as 15 mins infusion or 1 mg/kg, po administered via gavage by LC-MS/MS analysis; format: ADME, organism-based, Canis lupus familiaris; details: in vivo
[14] = molecular target: Prostaglandin D2 receptor 2 (Homo sapiens, UniProt Q9Y5Y4); experiment: Displacement of [3H]PGD2 from full-length recombinant human CRTH2 receptor expressed in CHOK1 cell membranes measured after 120 mins by scintillation counting method; design: species or system CHO-K1
Chain of Prostaglandin D2 receptor 2 (Q9Y5Y4 whole entry): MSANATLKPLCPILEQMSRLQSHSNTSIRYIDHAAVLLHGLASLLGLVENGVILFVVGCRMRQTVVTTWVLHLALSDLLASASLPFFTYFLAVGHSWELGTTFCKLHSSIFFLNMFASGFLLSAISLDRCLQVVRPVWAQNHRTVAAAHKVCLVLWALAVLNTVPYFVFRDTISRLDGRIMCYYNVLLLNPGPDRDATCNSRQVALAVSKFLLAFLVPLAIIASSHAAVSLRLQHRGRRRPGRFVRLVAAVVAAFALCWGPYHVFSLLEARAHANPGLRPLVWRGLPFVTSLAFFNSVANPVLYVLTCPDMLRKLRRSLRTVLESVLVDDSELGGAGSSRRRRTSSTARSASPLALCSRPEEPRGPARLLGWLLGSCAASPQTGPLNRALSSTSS

[15] = Clearance in Wistar rat at 1 mg/kg, iv administered as bolus dose or 3 mg/kg, po administered via gavage by LC-MS/MS analysis; format: ADME, organism-based; details: in vivo
[16] = Oral bioavailability in Wistar rat at 3 mg/kg administered via gavage by LC-MS/MS analysis; format: ADME, organism-based; details: in vivo
[17] = Drug metabolism in human hepatocytes assessed as formation of hydroxylated and ring-opened pyrrolidine derivative at 1 uM measured after 1 to 4 hrs by LC-MS/MS analysis; format: ADME, cell-based, Hepatocyte; details: time 1-4 hrs
[18] = Solubility of compound in phosphate buffer at pH 8 using crystalline form of sample; format: physicochemical
[19] = Clearance in Balb/c mouse at 1 mg/kg, iv administered as bolus dose or 3 mg/kg, po administered via gavage by LC-MS/MS analysis; format: ADME, organism-based; details: in vivo
Prostacyclin receptor = Prostacyclin receptor (Homo sapiens, UniProt P43119); experiment: Displacement of [3H]PGD2 from full-length recombinant human IP receptor expressed in HEK293 cell membranes measured after 60 mins by scintillation counting method
Chain of Prostacyclin receptor (P43119 whole entry): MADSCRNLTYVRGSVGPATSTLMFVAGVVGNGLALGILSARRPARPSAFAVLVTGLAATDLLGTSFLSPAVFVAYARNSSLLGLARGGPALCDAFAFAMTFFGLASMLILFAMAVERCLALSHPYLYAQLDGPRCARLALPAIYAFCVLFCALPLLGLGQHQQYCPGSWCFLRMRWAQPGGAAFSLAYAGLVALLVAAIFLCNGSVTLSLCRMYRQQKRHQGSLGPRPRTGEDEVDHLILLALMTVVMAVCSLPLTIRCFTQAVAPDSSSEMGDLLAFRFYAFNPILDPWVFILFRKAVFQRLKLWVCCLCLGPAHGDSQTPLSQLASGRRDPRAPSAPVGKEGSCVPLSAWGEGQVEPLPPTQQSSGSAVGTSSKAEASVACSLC

[20] = Drug metabolism in dog hepatocytes assessed as glucuronidation at 1 uM measured after 1 to 4 hrs by LC-MS/MS analysis; format: ADME, cell-based, Canis lupus familiaris, Hepatocyte; details: time 1-4 hrs
[21] = Toxicity in Beagle dog up to 1 g/kg/day, po administered for 14 days; format: organism-based, Canis lupus familiaris; details: in vivo, 1000 mg/kg, 336 h, time 14 day
[22] = Terminal half life in Beagle dog at 0.5 mg/kg, iv administered as 15 mins infusion by LC-MS/MS analysis; format: ADME, organism-based, Canis lupus familiaris; details: in vivo, read-out: beta t1/2 (converted)
[23] = Volume of distribution at steady state in Beagle dog at 0.5 mg/kg, iv administered as 15 mins infusion or 1 mg/kg, po administered via gavage by LC-MS/MS analysis; format: ADME, organism-based, Canis lupus familiaris; details: in vivo, read-out: Vdss
[24] = Volume of distribution at steady state in Wistar rat at 1 mg/kg, iv administered as bolus dose or 3 mg/kg, po administered via gavage by LC-MS/MS analysis; format: ADME, organism-based; details: in vivo, read-out: Vdss
[25] = Maximum oral bioavailability in rat hepatocytes based well stirred liver model at 1 uM measured after 2 to 90 mins by LC-MS/MS analysis; format: ADME, Hepatocyte; details: time 2-90 min, read-out: Fmax
[26] = Solubility of compound in 0.1 M HCl using crystalline form of sample; format: physicochemical
[27] = Volume of distribution at steady state in Balb/c mouse at 1 mg/kg, iv administered as bolus dose or 3 mg/kg, po administered via gavage by LC-MS/MS analysis; format: ADME, organism-based; details: in vivo, read-out: Vdss
[28] = Lipophilicity, log D of compound at pH 7.5 by HPLC analysis; details: buffer
Cytochrome P450 1A2 = Cytochrome P450 1A2 (Homo sapiens, UniProt P05177); experiment: Inhibition of CYP1A2 in human liver microsomes using phenacetin as substrate incubated for 15 mins in presence of NADPH generating system by LC-MS/MS analysis; format: ADME
Chain of Cytochrome P450 1A2 (P05177 whole entry): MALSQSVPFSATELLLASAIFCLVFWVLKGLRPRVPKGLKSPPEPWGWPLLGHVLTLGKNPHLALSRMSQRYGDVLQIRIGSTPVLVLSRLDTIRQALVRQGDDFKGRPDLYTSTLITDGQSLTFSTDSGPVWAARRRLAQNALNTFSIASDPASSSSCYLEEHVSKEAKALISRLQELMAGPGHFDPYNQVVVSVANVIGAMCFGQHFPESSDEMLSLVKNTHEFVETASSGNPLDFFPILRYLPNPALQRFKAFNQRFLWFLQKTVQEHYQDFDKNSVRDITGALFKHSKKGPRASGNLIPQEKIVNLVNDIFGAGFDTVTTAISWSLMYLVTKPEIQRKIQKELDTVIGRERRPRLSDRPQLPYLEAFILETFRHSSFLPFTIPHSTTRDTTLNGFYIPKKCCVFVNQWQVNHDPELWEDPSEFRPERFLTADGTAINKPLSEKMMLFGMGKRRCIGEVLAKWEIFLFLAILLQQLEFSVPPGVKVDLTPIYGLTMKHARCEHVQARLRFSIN

[29] = Oral bioavailability in Balb/c mouse at 3 mg/kg administered via gavage by LC-MS/MS analysis; format: ADME, organism-based; details: in vivo
[30] = Clearance in Wistar rat at 0.3 to 1 mg/kg, iv administered as bolus dose or 15 mins infusion by LC-MS/MS analysis; format: ADME, organism-based; details: Wistar, in vivo, dose 0.3-1 mg/kg
[31] = Solubility of compound in water using crystalline form of sample; format: physicochemical
[32] = molecular target: T2, Prostaglandin F2-alpha receptor; experiment: Antagonist activity at FPR in mouse NIH3T3 cells assessed as inhibition of PGF2alpha-induced cytokine induced neutrophil attracting chemokine production measured after 24 hrs by Bio-Rad assay; format: cell-based
[33] = Toxicity in Wistar rat up to 300 mg/kg/day, po administered for 14 days; format: organism-based; details: in vivo, 336 h, time 14 day
[34] = Drug metabolism in rat hepatocytes assessed as formation of hydroxylated and ring-opened pyrrolidine derivative at 1 uM measured after 1 to 4 hrs by LC-MS/MS analysis; format: ADME, cell-based, Hepatocyte; details: time 1-4 hrs
Cytochrome P450 2C9 = Cytochrome P450 2C9 (Homo sapiens, UniProt P11712); experiment: Inhibition of CYP2C9 in human liver microsomes using diclofenac as substrate incubated for 15 mins in presence of NADPH generating system by LC-MS/MS analysis; format: ADME
Chain of Cytochrome P450 2C9 (P11712 whole entry): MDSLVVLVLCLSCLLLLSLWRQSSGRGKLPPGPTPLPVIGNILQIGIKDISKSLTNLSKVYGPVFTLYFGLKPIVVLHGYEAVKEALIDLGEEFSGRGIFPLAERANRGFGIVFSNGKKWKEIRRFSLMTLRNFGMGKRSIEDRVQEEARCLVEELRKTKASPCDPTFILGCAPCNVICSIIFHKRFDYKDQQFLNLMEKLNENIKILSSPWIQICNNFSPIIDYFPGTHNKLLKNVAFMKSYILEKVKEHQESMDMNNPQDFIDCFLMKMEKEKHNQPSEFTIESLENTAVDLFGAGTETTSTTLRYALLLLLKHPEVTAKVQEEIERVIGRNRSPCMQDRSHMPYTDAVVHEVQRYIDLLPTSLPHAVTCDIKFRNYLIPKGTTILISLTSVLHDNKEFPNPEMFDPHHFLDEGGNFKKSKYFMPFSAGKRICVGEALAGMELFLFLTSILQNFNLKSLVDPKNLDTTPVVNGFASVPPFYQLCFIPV

Chain of Prostaglandin E2 receptor EP2 subtype (P43116 whole entry): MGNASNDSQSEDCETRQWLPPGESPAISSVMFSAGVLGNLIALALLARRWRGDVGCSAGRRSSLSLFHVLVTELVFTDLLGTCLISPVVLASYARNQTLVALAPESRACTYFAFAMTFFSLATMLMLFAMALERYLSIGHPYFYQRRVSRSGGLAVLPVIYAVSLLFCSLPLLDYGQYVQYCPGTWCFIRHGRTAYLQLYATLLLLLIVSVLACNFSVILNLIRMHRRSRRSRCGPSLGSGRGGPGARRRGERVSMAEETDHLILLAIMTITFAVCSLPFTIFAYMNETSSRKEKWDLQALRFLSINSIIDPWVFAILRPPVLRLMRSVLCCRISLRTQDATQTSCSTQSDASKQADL

IC50 [1]: > 10 µM
bioavailability [2]: 91%
half-life [3]: 3.4 h
IC50 [4]: > 10 µM
fraction unbound at 6 h [5]: < 0.01
IC50 [6]: 0.052 µM
Papp at 2 h [7]: 26.7 ×10⁻⁶ cm/s
fraction unbound at 6 h [8]: < 0.01
half-life [9]: 3.8 h
Fh at 1 µM [10]: 18%
IC50 [11]: 0.011 µM
IC50 (Cytochrome P450 2C8): > 20 µM
IC50 [12]: 0.018 µM
clearance [13]: 13.3 mL/min/kg
IC50 [14]: > 10 µM
clearance [15]: 11.7 mL/min/kg
bioavailability [16]: 91%
Drug metabolism [17]: Metabolite_Detected
solubility thermodynamic [18]: 290 µg/mL (≈ 532 µM)
clearance [19]: 18.3 mL/min/kg
IC50 (Prostacyclin receptor): > 10 µM
Drug metabolism [20]: Metabolite_Detected
half-life [22]: 14 h
Vd [23]: 1.8 L/kg
Vd [24]: 2.1 L/kg
Fh at 1 µM [25]: 67%
solubility [26]: 440 µg/mL (≈ 808 µM)
Vd [27]: 2 L/kg
logD [28]: 2.3
IC50 (Cytochrome P450 1A2): > 20 µM
bioavailability [29]: 94%
clearance [30]: 11.7 mL/min/kg
solubility [31]: < 1 µg/mL
IC50 [32]: 0.012 µM
Drug metabolism [34]: Metabolite_Detected
IC50 (Cytochrome P450 2C9): > 20 µM
SMILES: Cc1c(N2CCCC2)nc2ccc(Br)cc2c1C(=O)NC[C@H](CCC(=O)O)c1ccccc1Cl [BAY-6672]
Activity [21]: Non-Toxic
Activity [33]: Non-Toxic
